Test results reported in PubChem BioAssay (NCI).
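Grown in 96-well plates, cells were treated for 48 hours with each compound at five concentrations. Insufficient inhibition: endpoint recorded as highest concentration tested. Abbreviation: GI50, concentration required for 50% inhibition of growth. At the TGI there is no net growth.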

How the values were obtained:
Experiment in all cases: NCI anticancer screen, dose series, 48 h
KM12 colon = test system: KM12 colon
LOX IMVI melanoma = test system: LOX IMVI melanoma
RXF 393 renal = test system: RXF 393 renal
SF-268 CNS = test system: SF-268 CNS
SN12C renal = test system: SN12C renal
UACC-257 melanoma = test system: UACC-257 melanoma
DU-145 prostate = test system: DU-145 prostate
NCI/ADR-RES ovarian = test system: NCI/ADR-RES ovarian
PC-3 prostate = test system: PC-3 prostate

| SMILES | TGI (KM12 colon) [µM] | TGI (LOX IMVI melanoma) [µM] | TGI (RXF 393 renal) [µM] | TGI (SF-268 CNS) [µM] | TGI (SN12C renal) [µM] | TGI (UACC-257 melanoma) [µM] | other results |
| --- | --- | --- | --- | --- | --- | --- | --- |
| CC1=C(C(=O)Nc2ccccc2C)C(c2ccc(C3C(C(=O)Nc4ccccc4C)=CNC=C3C(=O)Nc3ccccc3C)cc2)C(C(=O)Nc2ccccc2C)=C(C)N1 | 29.2 | 21.7 | 85.1 | 17.4 | 21.9 | 33.2 | – |
| Cc1cc2c(cc1C)[n+](=O)c(C(=O)/C=C/c1ccccc1Cl)c(C)n2[O-] | 96.2 | > 100 | – | 95.9 | > 100 | 57.5 | – |
| CCC(/C(=N\Nc1c(Cl)cc(Cl)cc1Cl)c1ccccc1)n1ccnc1C (stereo unspecified) | 26.8 | 26.8 | – | 47.2 | 26.4 | 28.3 | – |
| O=C(c1ccc2c3c(ccc(C(=O)C(F)(F)F)c13)CC2)C(F)(F)F | > 100 | > 100 | > 100 | > 100 | > 100 | > 100 | – |
| Oc1cc2c(cc1O)-c1[nH]ncc1CC2 | > 100 | > 100 | – | > 100 | > 100 | > 100 | – |
| O=c1[nH]c(/C=C(\O)c2ccncc2)nc2ccccc12 | – | – | – | > 100 | > 100 | > 100 | – |
| CN(C)/C(N)=N/C(N)=S | > 100 | > 100 | > 100 | > 100 | > 100 | > 100 | – |
| O=C1C(N2C(=O)c3ccccc3C2=O)CN1C(COCc1ccccc1)c1ccc(OCc2ccccc2)cc1 (stereo unspecified) | > 100 | > 100 | > 100 | > 100 | > 100 | > 100 | – |
| N#CC1=C(c2ccccc2)C(O)(c2ccccc2)NC1=O (stereo unspecified) | > 100 | > 100 | > 100 | > 100 | > 100 | > 100 | – |
| COc1ccc(C(=O)O)c(Cc2ccc3ccccc3c2)c1 | > 100 | > 100 | > 100 | > 100 | > 100 | > 100 | – |
| ClC[Si]12OCCN(CCO1)CCO2 | > 100 | – | > 100 | > 100 | > 100 | > 100 | – |
| CC(C)CC(=O)NS(=O)(=O)c1ccccc1 | > 100 | > 100 | > 100 | > 100 | > 100 | > 100 | – |
| BrC12c3ccccc3Sc3ccccc3C1(Br)c1ccccc12 (stereo unspecified) | 38.9 | 29.7 | > 100 | > 100 | 76.6 | 86.3 | – |
| CC(Oc1ccc2cc(C(=O)c3ccccc3)c(=O)oc2c1)C(=O)O (stereo unspecified) | > 100 | > 100 | > 100 | > 100 | > 100 | > 100 | – |
| CC(=O)OCC1OC(Sc2ccccn2)C=CC1OC(C)=O (stereo unspecified) | > 100 | > 100 | > 100 | > 100 | > 100 | > 100 | – |
| COc1cc(-c2cc(CCC(=O)Nc3ccccc3[N+](=O)[O-])n(-c3ccc([N+](=O)[O-])cc3[N+](=O)[O-])n2)ccc1O | > 10 | > 100 | > 100 | > 100 | > 100 | > 10 | GI50 (LOX IMVI melanoma): > 100 µM; GI50 (RXF 393 renal): > 100 µM; GI50 (SF-268 CNS): > 100 µM; GI50 (SN12C renal): > 100 µM |
| CC(O[Si](C)(C)C)C1C=CC(C)n2c(=O)n(-c3ccccc3)c(=O)n21 (stereo unspecified) | > 100 | – | > 100 | – | – | – | – |
| CC1=C(c2cc(C(=O)Nc3nccs3)nc(NC#N)n2)Sc2ccccc2N1 | > 100 | – | – | > 100 | > 100 | > 100 | – |
| CC1(C)OC(=O)C(=C2CC(c3ccccc3)c3ccccc32)C(=O)O1 (stereo unspecified) | – | > 100 | > 100 | > 100 | > 100 | > 100 | – |
| Cc1cc2c(c(N)c1C)C(=O)c1ccccc1C2=O | > 100 | > 100 | > 100 | > 100 | > 100 | > 100 | – |
| O=S(=O)(NCCCNc1cc(-c2cn(-c3ccccc3)nc2-c2cccc(O)c2)ccn1)c1ccc(Cl)cc1 | 4.93 | 2.77 | 2.8 | 5.18 | 6.09 | – | GI50 (DU-145 prostate): 2.33 µM; TGI (DU-145 prostate): 7.58 µM; GI50 (KM12 colon): 1.95 µM; GI50 (LOX IMVI melanoma): 1.42 µM; GI50 (NCI/ADR-RES ovarian): 1.94 µM; TGI (NCI/ADR-RES ovarian): 5.3 µM; GI50 (PC-3 prostate): 1.74 µM; TGI (PC-3 prostate): 6.1 µM; GI50 (RXF 393 renal): 0.846 µM; GI50 (SF-268 CNS): 1.55 µM; GI50 (SN12C renal): 2.23 µM |
| CCC/C(=N\NC(=O)c1cc2ccccc2cc1O)C(CC)C(=O)CCC(=O)N(Cc1ccccc1)Cc1ccccc1 (stereo unspecified) | > 100 | > 100 | > 100 | > 100 | > 100 | > 100 | – |
| COC(=O)NN1C(C)=C(C(=O)OC)C2(CCOC2=O)C1(C)O (stereo unspecified) | > 100 | > 100 | – | > 100 | > 100 | > 100 | – |
| c1ccc(C2N3CCCCC3[C@@H]3c4[nH]c5ccccc5c4CCN23)cc1 (stereo partly specified) | – | – | > 100 | > 100 | > 100 | > 100 | – |
